This is an account of results in publication PMC6934184, “Selective DNA-PKcs inhibition extends the therapeutic index of localized radiotherapy and chemotherapy” (The Journal of Clinical Investigation, 2019).

As usually defined, the inhibition is the change of the read-out against control, counted positive when it falls.

For the experiment, the target named is T1, DAPK3 (ZIPK) (Homo sapiens, UniProt O43293).
T1 construct: purchased Thermo Fisher Scientific (Life Technologies) SelectScreen
In words: SelectScreen Z'LYTE. The class given is biochemical. The procedure, abridged: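 Compound tested in SelectScreen activity assays, Z'LYTE for CSF1R, CDK1/cyclin B and MAP2K6 and Adapta for CAMK1. ATP for CAMK1 was listed as 10, and Km app was used for CSF1R. Results are expressed in percent.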

T1 sequence (O43293 whole entry): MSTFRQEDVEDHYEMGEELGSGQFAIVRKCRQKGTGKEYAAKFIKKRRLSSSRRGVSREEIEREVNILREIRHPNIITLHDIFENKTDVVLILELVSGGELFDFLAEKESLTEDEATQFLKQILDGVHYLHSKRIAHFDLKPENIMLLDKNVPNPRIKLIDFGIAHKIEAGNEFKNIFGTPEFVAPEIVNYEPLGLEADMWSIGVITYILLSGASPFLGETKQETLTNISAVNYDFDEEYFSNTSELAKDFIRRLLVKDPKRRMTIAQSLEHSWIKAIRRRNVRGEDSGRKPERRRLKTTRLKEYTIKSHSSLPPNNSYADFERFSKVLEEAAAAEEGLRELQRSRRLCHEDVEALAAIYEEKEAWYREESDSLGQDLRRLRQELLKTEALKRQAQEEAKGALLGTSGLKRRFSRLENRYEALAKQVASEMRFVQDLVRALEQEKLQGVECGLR

On to `CN(C(=O)CN1CCOCC1)c1ccc2sc3c(-c4cccc5c(=O)cc(N6CC7CCC(C6)O7)oc45)cccc3c2c1` [NU5455], for which the inhibition at 1 µM is -3.4%.
